Assay results from PubChem BioAssay AID200 (DTP/NCI, 2004).
Where “and” joins values, the source holds several entries; their conditions need not be identical. Identical values can stand only once. Toxic doses and inconclusive results are not listed. Rule for the calls: active = survival T/C of 150% or more; inactive = T/C below 125% in these data.

Test system: B6C3F1 mice, B16 melanoma ip, median survival T/C
Assay: NCI In Vivo Anticancer Drug Screen. Data for tumor model B16 Melanoma (intraperitoneal) in B6C3F1 mice
Details: endpoint: median survival time, schedule: Q01DX009 (ip), higher = longer survival
Summary of the method: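 Readout: survival or tumor size in treated mice relative to vehicle controls (T/C). Model uses transplantable tumors grown in mice.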

[1] = dose: 25.0 mg/kg/injection, vehicle: Klucel (hydroxypropylcellulose) (HPC)
[2] = dose: 50.0 mg/kg/injection, vehicle: Klucel (hydroxypropylcellulose) (HPC)
[3] = dose: 100.0 mg/kg/injection, vehicle: Klucel (hydroxypropylcellulose) (HPC)
[4] = dose: 200.0 mg/kg/injection, vehicle: Klucel (hydroxypropylcellulose) (HPC)
[5] = dose: 6.25 mg/kg/injection, vehicle: saline with Tween-80
[6] = dose: 12.5 mg/kg/injection, vehicle: saline with Tween-80
[7] = dose: 50.0 mg/kg/injection, vehicle: saline with Tween-80
[8] = dose: 12.5 mg/kg/injection, vehicle: Klucel (hydroxypropylcellulose) (HPC)
[9] = dose: 25.0 mg/kg/injection, vehicle: saline with Tween-80
[10] = dose: 100.0 mg/kg/injection, vehicle: saline with Tween-80
[11] = dose: 200.0 mg/kg/injection, vehicle: saline with Tween-80
[12] = dose: 25.0 mg/kg/injection, vehicle: saline
[13] = dose: 50.0 mg/kg/injection, vehicle: saline
[14] = dose: 100.0 mg/kg/injection, vehicle: saline
[15] = dose: 200.0 mg/kg/injection, vehicle: saline
[16] = dose: 12.5 mg/kg/injection, vehicle: saline
[17] = dose: 400.0 mg/kg/injection, vehicle: Klucel (hydroxypropylcellulose) (HPC)
[18] = dose: 40.0 mg/kg/injection, vehicle: saline with Tween-80
[19] = dose: 80.0 mg/kg/injection, vehicle: saline with Tween-80

Measured: T/C

C=CCOc1cc2c(cc1C(C)c1ccc(OC)cc1)OCO2 (stereo unspecified)
inactive: [1] 120 % of control | [2] 124 % of control and 99 % of control | [3] 108 % of control | [4] 115 % of control

CC(C)OC(=O)c1ccc(C(C)C)cc1
inactive: dose: 3.13 mg/kg/injection, vehicle: saline with Tween-80 94 % of control | [5] 96 % of control | [6] 96 % of control and 101 % of control | [7] 90 % of control

Cc1c(C)c2c(c(C)c1OC(=O)CCC(=O)O)CCC(C)(CCCC(C)CCCC(C)CCCC(C)C)O2 (stereo unspecified)
inactive: dose: 25.0 mg/kg/injection, vehicle: distilled water + Tween-80 + alcohol 96 % of control | dose: 50.0 mg/kg/injection, vehicle: distilled water + Tween-80 + alcohol 112 % of control | dose: 100.0 mg/kg/injection, vehicle: distilled water + Tween-80 + alcohol 114 % of control | dose: 200.0 mg/kg/injection, vehicle: distilled water + Tween-80 + alcohol 86 % of control

CCCCCCCOc1ccc(C(=O)O)cc1
inactive: [8] 106 % of control | [1] 108 % of control | [2] 114 % of control

C/C(=N\NC(=S)N1CC2CCC(CC2)C1)c1nccs1
inactive: [5] 100 % of control | [6] 107 % of control | [9] 105 % of control

Nc1cc(Cl)c(N=Nc2ccccc2)c(N)n1
inactive: [10] 89 % of control | [11] 90 % of control

CC(=O)Nc1ccc(Nc2ccc(C(=C3C=CC(=[N+](C)CCC#N)C=C3)c3ccc(N(C)CCC#N)cc3)cc2)cc1
inactive: dose: 0.78 mg/kg/injection, vehicle: saline with Tween-80 105 % of control | dose: 1.56 mg/kg/injection, vehicle: saline with Tween-80 108 % of control | dose: 3.12 mg/kg/injection, vehicle: saline with Tween-80 105 % of control | [5] 107 % of control | [6] 120 % of control | [9] 106 % of control

CSCCC(N)C(=O)O (stereo unspecified)
inactive: [12] 106 % of control | [13] 94 % of control | [14] 100 % of control | [15] 113 % of control | dose: 400.0 mg/kg/injection, vehicle: saline 99 % of control

CC1(C)N=C(N)N=C(N)N1c1ccc(F)c(C(F)(F)F)c1
inactive: dose: 0.37 mg/kg/injection, vehicle: saline 93 % of control | dose: 0.75 mg/kg/injection, vehicle: saline 96 % of control | dose: 1.5 mg/kg/injection, vehicle: saline 94 % of control | dose: 3.0 mg/kg/injection, vehicle: saline 99 % of control | dose: 6.0 mg/kg/injection, vehicle: saline 106 % of control | dose: 12.0 mg/kg/injection, vehicle: saline 113 % of control | [16] 120 % of control

Nc1c(/C=C/c2cc3cc(C4=NCCN4)ccc3o2)[nH]c2cc(C3=NCCN3)ccc12
inactive: dose: 1.5 mg/kg/injection, vehicle: Klucel (hydroxypropylcellulose) (HPC) 108 % of control | dose: 3.0 mg/kg/injection, vehicle: Klucel (hydroxypropylcellulose) (HPC) 98 % of control | dose: 6.0 mg/kg/injection, vehicle: Klucel (hydroxypropylcellulose) (HPC) 95 % of control | dose: 12.0 mg/kg/injection, vehicle: Klucel (hydroxypropylcellulose) (HPC) 98 % of control | [8] 90 % of control | dose: 24.0 mg/kg/injection, vehicle: Klucel (hydroxypropylcellulose) (HPC) 90 % of control | [1] 89 % of control

COc1ccc(C(=O)CC2CCCC(CC(=O)c3ccc(OC)cc3)N2C)cc1 (stereo unspecified)
inactive: [7] 103 % of control | [10] 101 % of control

c1ccc(CN2CCOC2)cc1
inactive: [16] 100 % of control and 101 % of control | [12] 101 % of control and 108 % of control | [13] 98 % of control and 102 % of control | [14] 112 % of control and 102 % of control | [15] 113 % of control

O=c1[nH]cc(O)c(=O)[nH]1
inactive: [2] 102 % of control | [3] 96 % of control | [4] 103 % of control

C[C@]12CC[C@@H]3c4ccc(OC(=O)Cc5ccc(N(CCCl)CCCl)cc5)cc4CC[C@H]3[C@@H]1CC[C@@H]2OC(=O)Cc1ccc(N(CCCl)CCCl)cc1
inactive: [8] 104 % of control | [1] 92 % of control and 103 % of control | [2] 121 % of control and 103 % of control | [3] 90 % of control and 93 % of control | [4] 104 % of control | [17] 92 % of control and 103 % of control

Cc1c2c(ccc3ccccc32)c[n+]2ccccc12
inactive: dose: 1.56 mg/kg/injection, vehicle: saline 89 % of control | dose: 3.12 mg/kg/injection, vehicle: saline 103 % of control | dose: 6.25 mg/kg/injection, vehicle: saline 105 % of control | [16] 108 % of control | [12] 108 % of control

CCN(CC)CCCC(C)Nc1c2ccc(C)cc2nc2ccc(OC)cc12 (stereo unspecified)
inactive: [16] 102 % of control | [12] 111 % of control

C[C@]12CCC(=O)C=C1CC[C@@H]1[C@@H]2C(=O)C[C@@]2(C)[C@H]1CC[C@]2(O)C(=O)CO
inactive: [2] 106 % of control | [3] 93 % of control | [4] 108 % of control | [17] 117 % of control

NC(N)=NCCCC(NC(=O)c1ccccc1)C(=O)O (stereo unspecified)
inactive: [18] 95 % of control and 102 % of control (2×) | [19] 122 % of control and 95 % of control and 96 % of control | dose: 160.0 mg/kg/injection, vehicle: saline with Tween-80 108 % of control and 102 % of control | dose: 320.0 mg/kg/injection, vehicle: saline with Tween-80 108 % of control and 105 % of control and 106 % of control | dose: 640.0 mg/kg/injection, vehicle: saline with Tween-80 113 % of control

Cc1nc(N)nc(N)c1-c1ccc(Cl)c(Cl)c1
inactive: dose: 0.31 mg/kg/injection, vehicle: saline with Tween-80 102 % of control | dose: 0.62 mg/kg/injection, vehicle: saline 116 % of control | dose: 0.63 mg/kg/injection, vehicle: saline with Tween-80 104 % of control | dose: 1.25 mg/kg/injection, vehicle: saline with Tween-80 102 % of control | dose: 1.25 mg/kg/injection, vehicle: saline 101 % of control and 102 % of control | dose: 2.5 mg/kg/injection, vehicle: saline with Tween-80 113 % of control | dose: 2.5 mg/kg/injection, vehicle: saline 116 % of control

COc1cc2c3c(cccc3c1)C(=O)N(CCN(C)C)C2=O
inactive: dose: 5.0 mg/kg/injection, vehicle: saline with Tween-80 119 % of control and 95 % of control | dose: 10.0 mg/kg/injection, vehicle: saline with Tween-80 115 % of control and 100 % of control | dose: 20.0 mg/kg/injection, vehicle: saline with Tween-80 110 % of control and 100 % of control and 105 % of control | [18] 109 % of control and 121 % of control and 104 % of control | [19] 107 % of control

Nc1nc(-c2cccc(S(=O)(=O)O)c2)c([N+](=O)[O-])c(=O)[nH]1
inactive: dose: 12.88 mg/kg/injection, vehicle: saline 99 % of control | dose: 25.75 mg/kg/injection, vehicle: saline 96 % of control | dose: 51.5 mg/kg/injection, vehicle: saline 109 % of control

CCOC(=O)[C@]1(Br)CC[C@@]1(Br)C(=O)OCC
inactive: [6] 108 % of control and 104 % of control | [9] 110 % of control and 105 % of control | [7] 98 % of control and 106 % of control | [10] 100 % of control and 107 % of control | [11] 110 % of control and 105 % of control

CCCCC(NC(=O)C(C)N)C(=O)O (stereo unspecified)
inactive: [2] 102 % of control | [3] 107 % of control | [4] 96 % of control | [17] 93 % of control

C/C=C/C=C1/OC(C)=C(C(C)=O)C1=O
inactive: [6] 99 % of control | [9] 99 % of control | [7] 106 % of control | [10] 98 % of control | [11] 109 % of control
